Laboratory results published in ChEMBL document CHEMBL1201862, “PubChem BioAssay data set” (2004).
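Briefly, cells in 96-well plates were exposed to five compound concentrations for 48 h, and endpoints were estimated by linear interpolation. GI50 is the concentration that inhibits growth by half.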 Activity calls are given as the source filed them. Cut-off read from the data, not from the text of the source: active = GI50 up to about 1.1 µM and inactive = higher.

Experiments:
Assay in all cases: NCI-60 cell line screen, 48 h
UO-31 = test system: UO-31
OVCAR-3 = test system: OVCAR-3
786-0 = test system: 786-0
NCI-H522 = test system: NCI-H522
M14 = test system: M14
NCI/ADR-RES = test system: NCI/ADR-RES
SR = test system: SR
Malme-3M = test system: Malme-3M
UACC-257 = test system: UACC-257
CAKI-1 = test system: CAKI-1
RXF 393 = test system: RXF 393
HOP-92 = test system: HOP-92
OVCAR-4 = test system: OVCAR-4
OVCAR-5 = test system: OVCAR-5
COLO 205 = test system: COLO 205
NCI-H23 = test system: NCI-H23
SK-MEL-2 = test system: SK-MEL-2
SW-620 = test system: SW-620
DU-145 = test system: DU-145
NCI-H226 = test system: NCI-H226
ACHN = test system: ACHN
KM12 = test system: KM12
SK-OV-3 = test system: SK-OV-3
HOP-62 = test system: HOP-62
SK-MEL-5 = test system: SK-MEL-5
HL-60 = test system: HL-60
EKVX = test system: EKVX
Hs-578T = test system: Hs-578T
IGROV-1 = test system: IGROV-1
MCF7 = test system: MCF7
T47D = test system: T47D
SF-295 = test system: SF-295
SNB-19 = test system: SNB-19
SN12C = test system: SN12C
LOX IMVI = test system: LOX IMVI
SF-268 = test system: SF-268
OVCAR-8 = test system: OVCAR-8
MDA-N = test system: MDA-N
SF-539 = test system: SF-539
HT-29 = test system: HT-29
UACC-62 = test system: UACC-62
RPMI-8226 = test system: RPMI-8226
BT-549 = test system: BT-549
SK-MEL-28 = test system: SK-MEL-28
SNB-75 = test system: SNB-75
HCT-15 = test system: HCT-15
MDA-MB-435 = test system: MDA-MB-435
CCRF-CEM = test system: CCRF-CEM
PC-3 = test system: PC-3
MOLT-4 = test system: MOLT-4
HCT-116 = test system: HCT-116
K562 = test system: K562
A498 = test system: A498
A549 = test system: A549
TK-10 = test system: TK-10
NCI-H460 = test system: NCI-H460
HCC 2998 = test system: HCC 2998
U-251 = test system: U-251
MDA-MB-231 = test system: MDA-MB-231

Cc1ccc([N+](=O)[O-])cc1S(=O)(=O)Nc1ccc(C2=NN(S(=O)(=O)c3cc([N+](=O)[O-])ccc3C)C(c3ccco3)C2)cc1 (stereo not given)
GI50 (UO-31): 41.1 µM (inactive)
GI50 (OVCAR-3): 37.1 µM (inactive)
GI50 (786-0): 48.8 µM (inactive)
GI50 (NCI-H522): 45 µM (inactive)
GI50 (M14): 42 µM (inactive)
GI50 (NCI/ADR-RES): 40.3 µM (inactive)
GI50 (SR): 33.5 µM (inactive)
GI50 (Malme-3M): 47.2 µM (inactive)
GI50 (UACC-257): 11.1 µM (inactive)
GI50 (CAKI-1): 45.8 µM (inactive)
GI50 (RXF 393): 26.8 µM (inactive)
GI50 (HOP-92): 16.7 µM (inactive)
GI50 (OVCAR-4): 74.8 µM (inactive)
GI50 (OVCAR-5): > 100 µM (inactive)
GI50 (COLO 205): 39.4 µM (inactive)
GI50 (NCI-H23): 37.6 µM (inactive)
GI50 (SK-MEL-2): 38 µM (inactive)
GI50 (SW-620): > 100 µM (inactive)
GI50 (DU-145): 45 µM (inactive)
GI50 (NCI-H226): 38.9 µM (inactive)
GI50 (ACHN): 36.6 µM (inactive)
GI50 (KM12): 39.4 µM (inactive)
GI50 (SK-OV-3): > 100 µM (inactive)
GI50 (HOP-62): 45.2 µM (inactive)
GI50 (SK-MEL-5): 30.3 µM (inactive)
GI50 (HL-60): 38.8 µM (inactive)
GI50 (EKVX): 29.2 µM (inactive)
GI50 (Hs-578T): > 100 µM (inactive)
GI50 (IGROV-1): 29.6 µM (inactive)
GI50 (MCF7): 32.1 µM (inactive)
GI50 (T47D): 28.6 µM (inactive)
GI50 (SF-295): 32.8 µM (inactive)
GI50 (SNB-19): 46.1 µM (inactive)
GI50 (SN12C): 44.8 µM (inactive)
GI50 (LOX IMVI): 39 µM (inactive)
GI50 (SF-268): 53.3 µM (inactive)
GI50 (OVCAR-8): 44.5 µM (inactive)
GI50 (MDA-N): 43.9 µM (inactive)
GI50 (SF-539): 53 µM (inactive)
GI50 (HT-29): 54 µM (inactive)
GI50 (UACC-62): 21.8 µM (inactive)
GI50 (RPMI-8226): 25.8 µM (inactive)
GI50 (BT-549): 25.8 µM (inactive)
GI50 (SK-MEL-28): > 100 µM (inactive)
GI50 (SNB-75): > 100 µM (inactive)
GI50 (HCT-15): 41.7 µM
GI50 (MDA-MB-435): 54.7 µM (inactive)
GI50 (CCRF-CEM): 27.6 µM (inactive)
GI50 (PC-3): 45.5 µM (inactive)
GI50 (MOLT-4): 28.2 µM (inactive)
GI50 (HCT-116): 31.9 µM (inactive)
GI50 (K562): 31 µM (inactive)

Nc1nc(N)c2cc(Sc3ccc4nc(N)nc(N)c4c3)ccc2n1
GI50 (A498): > 100 µM (inactive)
GI50 (UO-31): > 100 µM (inactive)
GI50 (OVCAR-3): > 31.6 µM (inactive)
GI50 (M14): > 100 µM (inactive)
GI50 (A549): < 0.01 µM (active)
GI50 (NCI/ADR-RES): > 31.6 µM (inactive)
GI50 (SR): > 100 µM (inactive)
GI50 (UACC-257): > 100 µM (inactive)
GI50 (CAKI-1): > 100 µM (inactive)
GI50 (RXF 393): > 100 µM (inactive)
GI50 (HOP-92): > 100 µM (inactive)
GI50 (OVCAR-4): > 100 µM (inactive)
GI50 (OVCAR-5): > 100 µM (inactive)
GI50 (COLO 205): 10.9 µM (inactive)
GI50 (SK-MEL-2): > 100 µM (inactive)
GI50 (DU-145): 1.13 µM (inactive)
GI50 (NCI-H226): > 29.2 µM (inactive)
GI50 (TK-10): > 100 µM (inactive)
GI50 (ACHN): 0.493 µM (active)
GI50 (KM12): 2.15 µM (inactive)
GI50 (SK-OV-3): > 100 µM (inactive)
GI50 (NCI-H460): < 0.0145 µM (active)
GI50 (HOP-62): > 100 µM (inactive)
GI50 (HL-60): 0.0533 µM (active)
GI50 (EKVX): > 100 µM (inactive)
GI50 (Hs-578T): > 100 µM (inactive)
GI50 (IGROV-1): 0.514 µM (active)
GI50 (HCC 2998): 0.558 µM (active)
GI50 (T47D): > 44.2 µM (inactive)
GI50 (U-251): > 100 µM (inactive)
GI50 (MDA-MB-231): > 100 µM (inactive)
GI50 (SNB-19): 4.23 µM (inactive)
GI50 (LOX IMVI): 0.0408 µM (active)
GI50 (SF-268): 0.136 µM (active)
GI50 (OVCAR-8): 0.181 µM (active)
GI50 (MDA-N): > 100 µM (inactive)
GI50 (SF-539): > 100 µM (inactive)
GI50 (HT-29): 0.0933 µM (active)
GI50 (RPMI-8226): 4.89 µM (inactive)
GI50 (BT-549): > 100 µM (inactive)
GI50 (SK-MEL-28): > 100 µM (inactive)
GI50 (SNB-75): > 100 µM (inactive)
GI50 (HCT-15): 0.659 µM
GI50 (MDA-MB-435): 0.0522 µM (active)
GI50 (CCRF-CEM): 0.0194 µM (active)
GI50 (MOLT-4): 0.0524 µM (active)
GI50 (HCT-116): 0.2 µM (active)
GI50 (K562): < 0.01 µM (active)
